Measured values: patent US20020015940A1, “Method of gene expression screening” (priority 2000, published 2002)

Key:
[1] = system: E. coli; assay: toxicity response in the microbial system; type: cell-based; settings: system of the present invention; consistent with mammalian cell studies
Procedure: (§1) 2.0% cultures were grown from saturated overnight cultures at […] with shaking at 260 rpm for 3 hours. A 4.0% inoculum was mixed with […] top agar (10 g/L NaCl, 5.0 g/L yeast extract, 10 g/L tryptone, 7.0 g/L agar) and 10 ml was layered on 150 mm petri dishes containing LB and ampicillin. 10 μl of each drug to be tested was spotted onto the plate and incubated at 35° C. overnight. Colonies were screened when plated onto LB plates containing compounds that are known to activate oxidative stress genes, paraquat and hydrogen peroxide.
(§2) As the drug diffuses through the media, it created a concentration gradient.

[2] = system: acnA promoter probe; assay: stress probe-GFP fusion fluorescence after oxidative stress; type: cell-based, E. coli; settings: varying concentrations of stressor, 4 hours post-stress
Text: (§3) Using GenBank to obtain the genomic sequence for each of the oxidative stress response genes, PCR primers are designed to amplify the promoter region. Generally the target for amplification was approximately 300 base pairs and encompasses the sequence upstream from the native translational start site. […] The entire promoter region flanked by incorporated restriction sites was cloned in frame with GFP on a plasmid. The stress probes were then transformed into E. coli.
(§4) Cells containing each stress probe-GFP fusion were cultured to early log phase, stressed with varying concentrations of paraquat or H2O2, and the fluorescence intensity measured at 4 hours post-stress. Due to the lethality of the higher concentrations of stresses, dividing by optical density (OD) normalized the fluorescence intensity values.

[3] = system: recA promoter probe; assay: as above; type: cell-based, E. coli; settings: varying concentrations of stressor, 4 hours post-stress
Text: as §3, §4

[4] = system: zwf promoter probe; assay: as above; type: cell-based, E. coli; settings: varying concentrations of stressor, 4 hours post-stress
Text: as §3, §4

[5] = system: dps promoter probe; assay: as above; type: cell-based, E. coli; settings: varying concentrations of stressor, 4 hours post-stress
Text: as §3, §4

[6] = system: sodA promoter probe; assay: as above; type: cell-based, E. coli; settings: varying concentrations of stressor, 4 hours post-stress
Text: as §3, §4

[7] = system: E. coli harboring the stress probes (soxS and sodA); assay: high throughput 96-well dose-response of stress probes; type: cell-based; settings: for promoter probes turned on (mode of action): FIG. 5A and 5B
Procedure: 4. 0% cultures of E. coli harboring the stress probes were grown from a saturated overnight culture in 250 ml shake flasks containing 25 ml LB media and 100 μg/ml ampicillin at 35° C. with shaking at 260 rpm until the optical density reached 0.8 at 600 nm. 100 μl aliquots of culture were added to each well of a 96-well plate, along with 10 μl of various concentrations of the drug to be tested and incubated overnight. Experiments were run in duplicate. Fluorescence intensity and optical density measurements were taken using a Wallac 1420 VICTOR multilabel counter.
To test whether the procedure of Example 4 would work in a quantitative high throughput format, an experiment was conducted where the anti-tumor drug DNR was serially diluted and dose-response tested in a 96-well plate. For comparison, a similar experiment was conducted with paraquat.

[8] = system: sodA-GFP stress probe; assay: rate of change of GFP signal; type: cell-based, E. coli; settings: continuous stress by bolus of paraquat, FIG. 6
Text: The rate of change of the GFP signal measures the rate of the stress protein induction. This experiment compares the response of the sodA promoter to stresses in the form of a bolus of paraquat in one culture and a transient exposure to hyperoxia in another. A control culture consisting of uninduced sodA:GFP was included for comparison. […] An uninduced culture was included for comparison purposes.
The disadvantages of GFP as a reporter gene are its lag time for fluorescence (approximately 90 minutes) and extraordinary stability. One way to compensate for these is to measure the rate of change of the GFP fluorescence, which is possible using an LED-based sensor that permits continuous in situ measurements. The cell specific rate of change of GFP normalized to optical density is then a measure of the rate of gene expression of the stress protein.

[9] = system: pCRA11, sodA promoter probe construct; assay: agar plate spotting, zone of induction (green halo); type: cell-based, E. coli; settings: higher and varied concentrations of drugs spotted on plate, overnight
Procedure: as §1, §2

## O=C1C=C(N2CC2)C(=O)C=C1N1CC1 [DZQ]
[1]
  rank order of toxicity response: MeDZQ, DZQ, and AZQ, were ranked in decreasing order of toxicity response

## CCOC(=O)NC1=C(N2CC2)C(=O)C(NC(=O)OCC)=C(N2CC2)C1=O [AZQ, diaziquone]
[1]
  rank order of toxicity response: MeDZQ, DZQ, and AZQ, were ranked in decreasing order of toxicity response

## C[n+]1ccc(-c2cc[n+](C)cc2)cc1 [paraquat]
[2]
  fluorescence intensity normalized by optical density, acnA promoter probe: dose dependent response
[3]
  fluorescence intensity normalized by optical density, recA promoter probe: do not show a dose dependent response and are only inducible when exposed to higher paraquat concentrations
[4]
  fluorescence intensity normalized by optical density, zwf promoter probe: dose dependent response
[5]
  fluorescence intensity normalized by optical density, dps promoter probe: do not show a dose dependent response and are only inducible when exposed to higher paraquat concentrations
[6]
  fluorescence intensity normalized by optical density, sodA promoter probe: dose dependent response
[7]; 96-well plate
  promoter probes turned on (mode of action): turning on soxS and sodA
[7]; serial dilution in 96-well plate, overnight, FIG. 5B
  shape of dose response: monotonically increasing response
[8]
  rate of sodA expression (GFP derivative): continual gene expression of sodA

## COc1cccc2c1C(=O)c1c(O)c3c(c(O)c1C2=O)C[C@@](O)(C(=O)CO)C[C@@H]3O[C@H]1C[C@H](N)[C@H](O)[C@H](C)O1 [Doxorubicin, doxorubicin]
[9]
  induction of sodA promoter probe compared with induction of recA: stronger induction of sodA than its induction of recA

## COc1cccc2c1C(=O)c1c(O)c3c(c(O)c1C2=O)C[C@@](O)(C(C)=O)C[C@@H]3O[C@H]1C[C@H](N)[C@H](O)[C@H](C)O1 [DNR, daunorubicin]
[7]; 96-well plate
  promoter probes turned on (mode of action): turning on soxS and sodA
[7]; above 20 μM, 96-well plate
  toxicity to cells beyond the concentration of maximal response: becomes toxic and kills cells
[7]; serial dilution in 96-well plate, overnight, FIG. 5A
  concentration at which maximal response is observed: 20 µM

## CC1=C(N2CC2)C(=O)C(C)=C(N2CC2)C1=O [MeDZQ, methyl diaziridinequinone]
[1]
  rank order of toxicity response: MeDZQ, DZQ, and AZQ, were ranked in decreasing order of toxicity response

## OO [hydrogen peroxide]
[2]
  fluorescence intensity normalized by optical density, acnA promoter probe: no inducible response
[3]
  fluorescence intensity normalized by optical density, recA promoter probe: dose dependent response
[4]
  fluorescence intensity normalized by optical density, zwf promoter probe: no inducible response
[5]
  fluorescence intensity normalized by optical density, dps promoter probe: dose dependent response
[6]
  fluorescence intensity normalized by optical density, sodA promoter probe: no inducible response
